According to patent publication US9096624B2 (OSI Pharmaceuticals, LLC, priority 2009, dated 2015):
Counter-ions that a name gives are not always drawn.

Target: FAK (Homo sapiens, UniProt Q05397)
Assay: biochemical

Sequence of FAK (Q05397 whole entry): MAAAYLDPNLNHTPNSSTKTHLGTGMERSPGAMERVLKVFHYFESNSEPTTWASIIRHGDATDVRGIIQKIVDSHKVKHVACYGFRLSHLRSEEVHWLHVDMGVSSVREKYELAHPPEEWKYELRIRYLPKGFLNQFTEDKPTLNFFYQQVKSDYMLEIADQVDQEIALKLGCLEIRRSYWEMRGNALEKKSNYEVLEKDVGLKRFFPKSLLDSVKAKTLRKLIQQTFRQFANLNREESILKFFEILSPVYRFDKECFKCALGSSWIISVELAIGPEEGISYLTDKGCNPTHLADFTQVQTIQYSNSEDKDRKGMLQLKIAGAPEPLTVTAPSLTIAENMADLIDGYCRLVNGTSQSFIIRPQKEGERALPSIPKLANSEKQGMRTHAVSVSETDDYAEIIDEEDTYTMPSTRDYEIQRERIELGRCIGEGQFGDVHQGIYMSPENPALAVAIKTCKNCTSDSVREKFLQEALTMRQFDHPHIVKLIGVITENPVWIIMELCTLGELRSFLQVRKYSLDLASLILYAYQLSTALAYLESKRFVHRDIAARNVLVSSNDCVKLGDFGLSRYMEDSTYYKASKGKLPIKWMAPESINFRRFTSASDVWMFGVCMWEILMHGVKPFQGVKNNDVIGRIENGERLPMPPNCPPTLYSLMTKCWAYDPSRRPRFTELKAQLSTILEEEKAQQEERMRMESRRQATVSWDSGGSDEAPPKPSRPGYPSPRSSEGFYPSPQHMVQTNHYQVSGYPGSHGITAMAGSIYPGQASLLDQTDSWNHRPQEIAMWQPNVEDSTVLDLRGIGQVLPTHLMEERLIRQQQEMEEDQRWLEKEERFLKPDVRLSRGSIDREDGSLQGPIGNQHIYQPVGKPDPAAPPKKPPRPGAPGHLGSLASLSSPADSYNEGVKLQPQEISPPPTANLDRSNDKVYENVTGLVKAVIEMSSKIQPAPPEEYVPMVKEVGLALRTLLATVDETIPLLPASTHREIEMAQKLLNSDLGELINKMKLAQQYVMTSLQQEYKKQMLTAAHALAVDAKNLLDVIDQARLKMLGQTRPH

| SMILES | IC50 [nM] |
| --- | --- |
| CCOP(=O)(Cc1ccc(Nc2ncc(C(F)(F)F)c(Nc3cccc4c3C(=O)N(C)C4C)n2)cc1)OCC (centres unmarked) [Example 157, Diethyl [4-({4-[(1,2-dimethyl-3-oxo-2,3-dihydro-1H-isoindol-4-yl)amino]-5-(trifluoromethyl)pyrimidin-2-yl}amino)benzyl]phosphonate] | < 1000 |
| CCOC(c1ccc(Nc2ncc(C(F)(F)F)c(Nc3ccccc3C(=O)NC)n2)cc1)P(=O)(OCC)OCC (centres unmarked) [Example 159, Diethyl [ethoxy(4-{[4-{[2-(methylcarbamoyl)phenyl]amino}-5-(trifluoromethyl)pyrimidin-2-yl]amino}phenyl)methyl]phosphonate] | < 1000 |
| CCOP(=O)(OCC)C(OC)c1ccc(Nc2ncc(C(F)(F)F)c(Nc3ccccc3C(=O)NC)n2)cc1 (centres unmarked) [Example 160, Diethyl [methoxy(4-{[4-{[2-(methylcarbamoyl)phenyl]amino}-5-(trifluoromethyl)pyrimidin-2-yl]amino}phenyl)methyl]phosphonate] | < 1000 |
| CCOP(=O)(Cc1ccc(Nc2ncc(C(F)(F)F)c(Nc3ccc(C#N)c4c3C(=O)N(C)C4)n2)cc1)OCC [Example 161, Diethyl [4-({4-[(7-cyano-2-methyl-3-oxo-2,3-dihydro-1H-isoindol-4-yl)amino]-5-(trifluoromethyl)pyrimidin-2-yl}amino)benzyl]phosphonate] | < 1000 |
| CCOP(=O)(Cc1ccc(Nc2ncc(C(F)(F)F)c(Nc3ccc(C#N)c4c3C(=O)N(C)C4)n2)c(OC)c1)OCC [Example 162, Diethyl [4-({4-[(7-cyano-2-methyl-3-oxo-2,3-dihydro-1H-isoindol-4-yl)amino]-5-(trifluoromethyl)pyrimidin-2-yl}amino)-3-methoxybenzyl]phosphonate] | < 1000 |
| CCOP(=O)(Cc1ccc(Nc2ncc(C(F)(F)F)c(Nc3ccc(-c4cnn(CCOC)c4)cc3C(=O)NC)n2)cc1)OCC [Example 163, Diethyl (4-{[4-({4-[1-(2-methoxyethyl)-1H-pyrazol-4-yl]-2-(methylcarbamoyl)phenyl}amino)-5-(trifluoromethyl)pyrimidin-2-yl]amino}benzyl) phosphonate] | < 1000 |
| CCOP(=O)(Cc1ccc(Nc2ncc(C(F)(F)F)c(Nc3ccc([C@H]4CC[C@H](OCC)CC4)c4c3C(=O)N(C)C4)n2)c(OC)c1)OCC [Example 170, Diethyl (4-{[4-{[7-(trans-4-ethoxycyclohexyl)-2-methyl-3-oxo-2,3-dihydro-1H-isoindol-4-yl]amino}-5-(trifluoromethyl)pyrimidin-2-yl]amino}-3-methoxybenzyl)phosphonate] | < 1000 |
| CCOP(=O)(Cc1ccc(Nc2ncc(C(F)(F)F)c(Nc3ccc([C@H]4CC[C@H](O)CC4)cc3C(=O)N(C)C)n2)cc1)OCC [Example 173, Diethyl (4-{[4-{[2-(dimethylcarbamoyl)-4-(trans-4-hydroxycyclohexyl)phenyl]amino}-5-(trifluoromethyl)pyrimidin-2-yl]amino}benzyl)phosphonate] | < 1000 |
| CCOP(=O)(Cc1ccc(Nc2ncc(C(F)(F)F)c(Nc3ccccc3C(=O)N3CCN(C)CC3)n2)cc1)OCC [Example 177, Diethyl (4-{[4-({2-[(4-methylpiperazin-1-yl)carbonyl]phenyl}amino)-5-(trifluoromethyl)pyrimidin-2-yl]amino}benzyl)phosphonate] | < 1000 |
| CCOP(=O)(Cc1ccc(Nc2ncc(C(F)(F)F)c(Nc3ccccc3C(=O)N3CCCC3)n2)c(OC)c1)OCC [Example 178, Diethyl (3-methoxy-4-{[4-{[2-(pyrrolidin-1-ylcarbonyl)phenyl]amino}-5-(trifluoromethyl)pyrimidin-2-yl]amino}benzyl)phosphonate] | < 1000 |
| CCOP(=O)(Cc1ccc(Nc2ncc(C(F)(F)F)c(Nc3ccccc3C(=O)N3CCN(C)CC3)n2)c(OC)c1)OCC [Example 179, Diethyl (3-methoxy-4-{[4-({2-[(4-methylpiperazin-1-yl)carbonyl]phenyl}amino)-5-(trifluoromethyl)pyrimidin-2-yl]amino}benzyl)phosphonate] | < 1000 |
| CCOP(=O)(Cc1ccc(Nc2ncc(C(F)(F)F)c(Nc3ccc(-c4cnn(CCN(CC)CC)c4)cc3C(=O)NC)n2)cc1)OCC [Example 180, Diethyl (4-{[4-{[4-{1-[2-(diethylamino)ethyl]-1H-pyrazol-4-yl}-2-(methylcarbamoyl)phenyl]amino}-5-(trifluoromethyl)pyrimidin-2-yl]amino}benzyl)phosphonate] | < 1000 |
| CCOP(=O)(Cc1ccc(Nc2ncc(C(F)(F)F)c(Nc3ccc(-c4nn[nH]n4)c4c3C(=O)N(C)C4)n2)cc1)OCC [Example 181, Diethyl (4-{[4-{[2-methyl-3-oxo-7-(2H-tetrazol-5-yl)-2,3-dihydro-1H-isoindol-4-yl]amino}-5-(trifluoromethyl)pyrimidin-2-yl]amino}benzyl)phosphonate] | < 1000 |
| CCOP(=O)(Cc1ccc(Nc2ncc(C(F)(F)F)c(Nc3cccc4c3C(=O)N(O)C4)n2)c(OC)c1)OCC [Example 186, Diethyl [4-({4-[(2-hydroxy-3-oxo-2,3-dihydro-1H-isoindol-4-yl)amino]-5-(trifluoromethyl)pyrimidin-2-yl}amino)-3-methoxybenzyl]phosphonate trifluoroacetate] | < 1000 |
| CCOP(=O)(Cc1ccc(Nc2ncc(C(F)(F)F)c(Nc3cccc4c3C(=O)N(OC)C4)n2)c(OC)c1)OCC [Example 187, Diethyl [3-methoxy-4-({4-[(2-methoxy-3-oxo-2,3-dihydro-1H-isoindol-4-yl)amino]-5-(trifluoromethyl)pyrimidin-2-yl}amino)benzyl]phosphonate trifluoroacetate] | < 1000 |
| CCOP(C)(=O)Cc1ccc(Nc2ncc(C(F)(F)F)c(Nc3ccc([C@H]4CC[C@@](C)(O)CC4)c4c3C(=O)N(C)C4)n2)c(OC)c1 (stereo partly drawn) [Example 200, Ethyl (4-{[4-{[7-(cis-4-hydroxy-4-methylcyclohexyl)-2-methyl-3-oxo-2,3-dihydro-1H-isoindol-4-yl]amino}-5-(trifluoromethyl)pyrimidin-2-yl]amino}-3-methoxybenzyl)methylphosphinate] | < 1000 |
| CCOP(=O)(Cc1ccc(Nc2ncc(C(F)(F)F)c(Nc3ccc(OC)c4c3C(=O)N(C)C4)n2)cc1)OCC [Example 205, Diethyl [4-({4-[(7-methoxy-2-methyl-3-oxo-2,3-dihydro-1H-isoindol-4-yl)amino]-5-(trifluoromethyl)pyrimidin-2-yl}amino)benzyl]phosphonate] | < 1000 |
| CCOc1ccc(Nc2nc(Nc3ccc(CP(=O)(OCC)OCC)cc3OC)ncc2C(F)(F)F)c2c1CN(C)C2=O [Example 210, Diethyl [4-({4-[(7-ethoxy-2-methyl-3-oxo-2,3-dihydro-1H-isoindol-4-yl)amino]-5-(trifluoromethyl)pyrimidin-2-yl}amino)-3-methoxybenzyl]phosphonate] | < 1000 |
| CCOP(=O)(Cc1ccc(Nc2ncc(C(F)(F)F)c(Nc3ccc(OC(C)C)c4c3C(=O)N(C)C4)n2)c(OC)c1)OCC [Example 211, Diethyl (3-methoxy-4-{[4-{[2-methyl-3-oxo-7-(propan-2-yloxy)-2,3-dihydro-1H-isoindol-4-yl]amino}-5-(trifluoromethyl)pyrimidin-2-yl]amino}benzyl)phosphonate] | < 1000 |
| CCOP(=O)(Cc1ccc(Nc2ncc(C(F)(F)F)c(Nc3ccc(N4CCS(=O)(=O)CC4)c4c3C(=O)N(C)C4)n2)cc1)OCC [Example 212, Diethyl (4-{[4-{[7-(1,1-dioxidothiomorpholin-4-yl)-2-methyl-3-oxo-2,3-dihydro-1H-isoindol-4-yl]amino}-5-(trifluoromethyl)pyrimidin-2-yl]amino}benzyl)phosphonate] | < 1000 |
| CCOP(=O)(Cc1ccc(Nc2ncc(C(F)(F)F)c(Nc3ccc(N4CCOCC4)c4c3C(=O)N(C)C4)n2)c(OC)c1)OCC [Example 215, Diethyl (3-methoxy-4-{[4-{[2-methyl-7-(morpholin-4-yl)-3-oxo-2,3-dihydro-1H-isoindol-4-yl]amino}-5-(trifluoromethyl)pyrimidin-2-yl]amino}benzyl)phosphonate] | < 1000 |
| CCOP(=O)(Cc1ccc(Nc2ncc(C(F)(F)F)c(Nc3ccc(N4CCN(C)CC4)c4c3C(=O)N(C)C4)n2)c(OC)c1)OCC [Example 224, Diethyl (3-methoxy-4-{[4-{[2-methyl-7-(4-methylpiperazin-1-yl)-3-oxo-2,3-dihydro-1H-isoindol-4-yl]amino}-5-(trifluoromethyl)pyrimidin-2-yl]amino}benzyl)phosphonate] | < 1000 |
| CCOP(=O)(Cc1ccc(Nc2ncc(C(F)(F)F)c(Nc3ccc(N4CCN(CC(=O)OC(C)(C)C)CC4)c4c3C(=O)N(C)C4)n2)cc1)OCC [Example 225, tert-Butyl [4-(7-{[2-({4-[(diethoxyphosphoryl)methyl]phenyl}amino)-5-(trifluoromethyl)pyrimidin-4-yl]amino}-2-methyl-1-oxo-2,3-dihydro-1H-isoindol-4-yl)piperazin-1-yl]acetate] | < 1000 |
| CCOP(=O)(Cc1ccc(Nc2ncc(C(F)(F)F)c(Nc3ccc(N4CCN(CC(=O)OC(C)(C)C)CC4)c4c3C(=O)N(C)C4)n2)c(OC)c1)OCC [Example 226, tert-Butyl [4-(7-{[2-({4-[(diethoxyphosphoryl)methyl]-2-methoxyphenyl}amino)-5-(trifluoromethyl)pyrimidin-4-yl]amino}-2-methyl-1-oxo-2,3-dihydro-1H-isoindol-4-yl)piperazin-1-yl]acetate] | < 1000 |
| CCOP(=O)(Cc1ccc(Nc2ncc(C(F)(F)F)c(Nc3ccc(N4CC(O)C4)c4c3C(=O)N(C)C4)n2)cc1)OCC [Example 227, Diethyl (4-{[4-{[7-(3-hydroxyazetidin-1-yl)-2-methyl-3-oxo-2,3-dihydro-1H-isoindol-4-yl]amino}-5-(trifluoromethyl)pyrimidin-2-yl]amino}benzyl)phosphonate] | < 1000 |
| CCOP(=O)(Cc1ccc(Nc2ncc(C(F)(F)F)c(Nc3ccc([C@H]4CC[C@H](OP(=O)(O)O)CC4)c4c3C(=O)N(C)C4)n2)c(OC)c1)OCC [Example 228, Diethyl (3-methoxy-4-{[4-({2-methyl-3-oxo-7-[trans-4-(phosphonooxy)cyclohexyl]-2,3-dihydro-1H-isoindol-4-yl}amino)-5-(trifluoromethyl)pyrimidin-2-yl]amino}benzyl)phosphonate] | < 1000 |
